Reference: PubChem BioAssay (NCI)
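A five-concentration, 48-hour dose response in 96-well plates underlies each endpoint, interpolated linearly between surrounding concentrations. GI50: concentration for 50% inhibition of growth. The concentration for full growth arrest is given as TGI.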

Key:
Assay in all cases: DTP human tumour cell line panel, 48 h
UACC-257 melanoma = system: UACC-257 melanoma
DU-145 prostate = system: DU-145 prostate
UO-31 renal = system: UO-31 renal
OVCAR-3 ovarian = system: OVCAR-3 ovarian
CCRF-CEM leukemia = system: CCRF-CEM leukemia
LOX IMVI melanoma = system: LOX IMVI melanoma
HT29 colon = system: HT29 colon
NCI-H460 lung = system: NCI-H460 lung
A498 renal = system: A498 renal
TK-10 renal = system: TK-10 renal
MDA-MB-231 breast = system: MDA-MB-231 breast
HOP-92 NSCLC = system: HOP-92 NSCLC
OVCAR-8 ovarian = system: OVCAR-8 ovarian
NCI-H226 lung = system: NCI-H226 lung
SW-620 colon = system: SW-620 colon
MOLT-4 leukemia = system: MOLT-4 leukemia
RPMI-8226 leukemia = system: RPMI-8226 leukemia
786-0 renal = system: 786-0 renal
CAKI-1 renal = system: CAKI-1 renal
HCT-116 colon = system: HCT-116 colon
SF-539 CNS = system: SF-539 CNS
SF-268 CNS = system: SF-268 CNS
PC-3 prostate = system: PC-3 prostate
SK-MEL-5 melanoma = system: SK-MEL-5 melanoma
MCF7 breast = system: MCF7 breast
A549 NSCLC = system: A549 NSCLC
T-47D breast = system: T-47D breast
HL-60(TB) leukemia = system: HL-60(TB) leukemia
RXF 393 renal = system: RXF 393 renal
SR leukemia = system: SR leukemia
SK-MEL-28 melanoma = system: SK-MEL-28 melanoma
EKVX NSCLC = system: EKVX NSCLC
SK-MEL-2 melanoma = system: SK-MEL-2 melanoma
SF-295 CNS = system: SF-295 CNS
NCI-H522 lung = system: NCI-H522 lung
SK-OV-3 ovarian = system: SK-OV-3 ovarian
OVCAR-4 ovarian = system: OVCAR-4 ovarian
COLO 205 colon = system: COLO 205 colon
BT-549 breast = system: BT-549 breast
HS 578T breast = system: HS 578T breast
MDA-MB-435 = system: MDA-MB-435
UACC-62 melanoma = system: UACC-62 melanoma
U251 CNS = system: U251 CNS
NCI/ADR-RES ovarian = system: NCI/ADR-RES ovarian
HOP-62 NSCLC = system: HOP-62 NSCLC
ACHN renal = system: ACHN renal
HCC-2998 colon = system: HCC-2998 colon
OVCAR-5 ovarian = system: OVCAR-5 ovarian
IGROV1 ovarian = system: IGROV1 ovarian
M14 melanoma = system: M14 melanoma
SN12C renal = system: SN12C renal
HCT-15 colon = system: HCT-15 colon
MALME-3M melanoma = system: MALME-3M melanoma
SNB-19 CNS = system: SNB-19 CNS
NCI-H23 lung = system: NCI-H23 lung
KM12 colon = system: KM12 colon
SNB-75 CNS = system: SNB-75 CNS

`Clc1ccc(-c2ccc(CNCC3CCNCC3)o2)c(-c2ccccc2)c1` was tested. Which GI50 (UACC-257 melanoma) did it give?
Its GI50 is 2030 nM.

And the TGI (UACC-257 melanoma)?
Its TGI is 3570 nM.

What about the GI50 (DU-145 prostate) of the same molecule?
Its GI50 is 1820 nM.

And the TGI (DU-145 prostate)?
The TGI was 3330 nM.

What about the GI50 (UO-31 renal) of the same molecule?
The GI50 was 1370 nM.

And the TGI (UO-31 renal)?
Its TGI is 2760 nM.

What about the GI50 (OVCAR-3 ovarian) of the same molecule?
Its GI50 is 1740 nM.

And the TGI (OVCAR-3 ovarian)?
Its TGI is 3460 nM.

What about the GI50 (CCRF-CEM leukemia) of the same molecule?
The GI50 was 557 nM.

What about the TGI (CCRF-CEM leukemia) of the same molecule?
The TGI was 2310 nM.

And the GI50 (LOX IMVI melanoma)?
Its GI50 is 1540 nM.

What about the TGI (LOX IMVI melanoma) of the same molecule?
Its TGI is 3030 nM.

And the GI50 (HT29 colon)?
Its GI50 is 1440 nM.

And the TGI (HT29 colon)?
Its TGI is 2890 nM.

What about the GI50 (NCI-H460 lung) of the same molecule?
The GI50 was 1710 nM.

What about the TGI (NCI-H460 lung) of the same molecule?
The TGI was 3330 nM.

What about the GI50 (A498 renal) of the same molecule?
The GI50 was 1710 nM.

And the TGI (A498 renal)?
Its TGI is 3240 nM.

And the GI50 (TK-10 renal)?
Its GI50 is 1620 nM.

And the TGI (TK-10 renal)?
The TGI was 3130 nM.

And the GI50 (MDA-MB-231 breast)?
The GI50 was 1360 nM.

What about the TGI (MDA-MB-231 breast) of the same molecule?
Its TGI is 2850 nM.

And the GI50 (HOP-92 NSCLC)?
The GI50 was 1010 nM.

What about the TGI (HOP-92 NSCLC) of the same molecule?
The TGI was 2230 nM.

What about the GI50 (OVCAR-8 ovarian) of the same molecule?
The GI50 was 1870 nM.

And the TGI (OVCAR-8 ovarian)?
Its TGI is 3500 nM.

And the GI50 (NCI-H226 lung)?
The GI50 was 1660 nM.

What about the TGI (NCI-H226 lung) of the same molecule?
Its TGI is 3680 nM.

What about the GI50 (SW-620 colon) of the same molecule?
The GI50 was 1380 nM.

What about the TGI (SW-620 colon) of the same molecule?
The TGI was 2960 nM.

And the GI50 (MOLT-4 leukemia)?
The GI50 was 1540 nM.

And the TGI (MOLT-4 leukemia)?
The TGI was 3420 nM.

What about the GI50 (RPMI-8226 leukemia) of the same molecule?
Its GI50 is 1300 nM.

And the TGI (RPMI-8226 leukemia)?
The TGI was 3190 nM.

And the GI50 (786-0 renal)?
Its GI50 is 1580 nM.

What about the TGI (786-0 renal) of the same molecule?
Its TGI is 3010 nM.

And the GI50 (CAKI-1 renal)?
The GI50 was 1510 nM.

What about the TGI (CAKI-1 renal) of the same molecule?
The TGI was 2900 nM.

And the GI50 (HCT-116 colon)?
The GI50 was 1240 nM.

What about the TGI (HCT-116 colon) of the same molecule?
Its TGI is 2540 nM.

And the GI50 (SF-539 CNS)?
The GI50 was 1650 nM.

And the TGI (SF-539 CNS)?
The TGI was 3120 nM.

And the GI50 (SF-268 CNS)?
Its GI50 is 1620 nM.

And the TGI (SF-268 CNS)?
Its TGI is 3270 nM.

And the GI50 (PC-3 prostate)?
The GI50 was 1380 nM.

And the TGI (PC-3 prostate)?
Its TGI is 2760 nM.

And the GI50 (SK-MEL-5 melanoma)?
Its GI50 is 1660 nM.

What about the TGI (SK-MEL-5 melanoma) of the same molecule?
Its TGI is 3050 nM.

What about the GI50 (MCF7 breast) of the same molecule?
The GI50 was 1560 nM.

And the TGI (MCF7 breast)?
Its TGI is 3300 nM.

What about the GI50 (A549 NSCLC) of the same molecule?
The GI50 was 1790 nM.

What about the TGI (A549 NSCLC) of the same molecule?
Its TGI is 3560 nM.

What about the GI50 (T-47D breast) of the same molecule?
Its GI50 is 1740 nM.

And the TGI (T-47D breast)?
Its TGI is 3820 nM.

What about the GI50 (HL-60(TB) leukemia) of the same molecule?
Its GI50 is 1800 nM.

And the TGI (HL-60(TB) leukemia)?
Its TGI is 3690 nM.

And the GI50 (RXF 393 renal)?
The GI50 was 1360 nM.

And the TGI (RXF 393 renal)?
The TGI was 2790 nM.

What about the GI50 (SR leukemia) of the same molecule?
Its GI50 is 347 nM.

And the TGI (SR leukemia)?
Its TGI is 1270 nM.

What about the GI50 (SK-MEL-28 melanoma) of the same molecule?
The GI50 was 1790 nM.

What about the TGI (SK-MEL-28 melanoma) of the same molecule?
The TGI was 3270 nM.

And the GI50 (EKVX NSCLC)?
The GI50 was 1590 nM.

What about the TGI (EKVX NSCLC) of the same molecule?
The TGI was 2950 nM.

And the GI50 (SK-MEL-2 melanoma)?
The GI50 was 1760 nM.

What about the TGI (SK-MEL-2 melanoma) of the same molecule?
Its TGI is 3310 nM.

And the GI50 (SF-295 CNS)?
The GI50 was 1570 nM.

What about the TGI (SF-295 CNS) of the same molecule?
The TGI was 3000 nM.

What about the GI50 (NCI-H522 lung) of the same molecule?
Its GI50 is 1850 nM.

And the TGI (NCI-H522 lung)?
The TGI was 3630 nM.

And the GI50 (SK-OV-3 ovarian)?
The GI50 was 1870 nM.

And the TGI (SK-OV-3 ovarian)?
Its TGI is 3330 nM.

What about the GI50 (OVCAR-4 ovarian) of the same molecule?
The GI50 was 1850 nM.

And the TGI (OVCAR-4 ovarian)?
Its TGI is 3540 nM.

What about the GI50 (COLO 205 colon) of the same molecule?
Its GI50 is 1640 nM.

What about the TGI (COLO 205 colon) of the same molecule?
Its TGI is 3360 nM.

And the GI50 (BT-549 breast)?
The GI50 was 1710 nM.

What about the TGI (BT-549 breast) of the same molecule?
Its TGI is 3200 nM.

What about the GI50 (HS 578T breast) of the same molecule?
The GI50 was 1630 nM.

What about the TGI (HS 578T breast) of the same molecule?
Its TGI is 3420 nM.

And the GI50 (MDA-MB-435)?
Its GI50 is 1610 nM.

And the TGI (MDA-MB-435)?
Its TGI is 3050 nM.

What about the GI50 (UACC-62 melanoma) of the same molecule?
Its GI50 is 1750 nM.

What about the TGI (UACC-62 melanoma) of the same molecule?
The TGI was 3270 nM.

What about the GI50 (U251 CNS) of the same molecule?
The GI50 was 1560 nM.

And the TGI (U251 CNS)?
The TGI was 3010 nM.

And the GI50 (NCI/ADR-RES ovarian)?
Its GI50 is 1710 nM.

And the TGI (NCI/ADR-RES ovarian)?
Its TGI is 3300 nM.

What about the GI50 (HOP-62 NSCLC) of the same molecule?
The GI50 was 1650 nM.

What about the TGI (HOP-62 NSCLC) of the same molecule?
The TGI was 3270 nM.

And the GI50 (ACHN renal)?
Its GI50 is 1670 nM.

And the TGI (ACHN renal)?
The TGI was 3060 nM.

And the GI50 (HCC-2998 colon)?
Its GI50 is 1620 nM.

What about the TGI (HCC-2998 colon) of the same molecule?
Its TGI is 3200 nM.

And the GI50 (OVCAR-5 ovarian)?
Its GI50 is 1610 nM.

And the TGI (OVCAR-5 ovarian)?
The TGI was 3040 nM.

What about the GI50 (IGROV1 ovarian) of the same molecule?
The GI50 was 1390 nM.

And the TGI (IGROV1 ovarian)?
Its TGI is 2930 nM.

And the GI50 (M14 melanoma)?
Its GI50 is 1630 nM.

What about the TGI (M14 melanoma) of the same molecule?
The TGI was 3110 nM.

What about the GI50 (SN12C renal) of the same molecule?
The GI50 was 1540 nM.

What about the TGI (SN12C renal) of the same molecule?
Its TGI is 3030 nM.

What about the GI50 (HCT-15 colon) of the same molecule?
The GI50 was 1190 nM.

And the TGI (HCT-15 colon)?
Its TGI is 2600 nM.

And the GI50 (MALME-3M melanoma)?
Its GI50 is 1880 nM.

And the TGI (MALME-3M melanoma)?
Its TGI is 3540 nM.

And the GI50 (SNB-19 CNS)?
Its GI50 is 1640 nM.

What about the TGI (SNB-19 CNS) of the same molecule?
The TGI was 3160 nM.

And the GI50 (NCI-H23 lung)?
Its GI50 is 1710 nM.

What about the TGI (NCI-H23 lung) of the same molecule?
The TGI was 3320 nM.

And the GI50 (KM12 colon)?
The GI50 was 1790 nM.

What about the TGI (KM12 colon) of the same molecule?
Its TGI is 3620 nM.

What about the GI50 (SNB-75 CNS) of the same molecule?
The GI50 was 1390 nM.

What about the TGI (SNB-75 CNS) of the same molecule?
The TGI was 2810 nM.
